Where “and” joins values, the source holds several entries; their conditions need not be identical. Equal entries are not always repeated.
Legend:
[1] = Nath et al., J. Clin. Invest. 1992; cited from earlier work
[2] = test system: IL-10; experiment: Renal cortical IL-10 mRNA and protein after N-Mgb, SnPP or both; type: in vivo, mice
Method: (§1) Thirty-two mice were divided into 4 equal groups: (1) control mice; (2) mice treated with 1 mg of N-Mgb injection (as a bolus through the tail vein); (3) mice treated with […] of SnPP (via tail vein); and (4) mice treated with combined N-Mgb 1 SnPP. After either 4 hours (n=16) or 18 hours (n=16), the mice were deeply anesthetized with pentobarbital (50 mg/kg), the abdomen was opened through a midline abdominal incision, and the kidneys were removed. To determine potential effects on extrarenal organs, a liver lobe and the heart were also removed. The tissues were iced and then extracted for protein and RNA (RNeasy Plus Mini; Qiagen, Valencia, Calif.) and subjected to enzyme linked immunosorbent assay (ELISA) and reverse transcriptase polymerase chain reaction (RT-PCR) for HO-1, haptoglobin, and IL-10 protein and messenger RNAs (mRNAs). Zager et al. J Am Soc Nephrol 2014;25:998-1012; Zager et al. Am J Physiol 2012;303:F139-48. As an assessment of renal function, control mice and the 18 hour after N-Mgb+SnPP—treated mice had blood urea nitrogen (BUN) and plasma creatinine levels measured. Additionally, transverse 10% formalin fixed kidney sections ([…]) were cut and stained with hematoxylin and eosin (H&E) and periodic acid Schiff (PAS) to further assess potential injury.

[3] = Berglund et al.; Kappas et al.; Reddy et al.; cited from earlier work
[4] = Agarwal et al., Kidney Int. 1995; cited from earlier work
[5] = Berglund et al. Hepatology 1988; cited from earlier work
[6] = test system: Haptoglobin; experiment: Renal cortical haptoglobin mRNA and protein after N-Mgb, SnPP or both; type: in vivo, mice; conditions: renal cortex, 4 h after Rx treatment
Method: as §1

[7] = test system: Mgb-exposed cultured proximal tubule (HK-2) cells; conditions: Zager & Burkhart, Kidney Int 1997; cited from earlier work
[8] = test system: HO-1; experiment: Cardiac HO-1 mRNA and protein after N-Mgb, SnPP or both; type: in vivo, mice; conditions: 18 h after Rx treatment
Method: as §1

[9] = Glycerol model of rhabdomyolysis-induced AKI; type: in vivo, mice; conditions: IV pretreatment 18 hours before glycerol; 18 hours after glycerol
Method: Assessments of cytoresistance. Glycerol model of rhabdomyolysis-induced AKI. Twenty mice were divided into 4 equal groups (controls, mice treated with N-Mgb, SnPP, and mice treated with N-Mgb+SnPP tail vein injections) as described previously. 18 hours later, the mice were briefly anesthetized with isoflurane and immediately injected with 9 mL/kg of 50% glycerol, administered in equally divided doses into each hind limb. At 18 hours after glycerol injection, the mice were anesthetized with pentobarbital, the abdomen was opened, a blood sample for BUN and creatinine assessments was obtained from the vena cava, and the kidneys were resected. The control post-glycerol group and the N-Mgb+SnPP—pretreated glycerol group had kidney sections stained with H&E.
Calculations and statistics. All values are given as the mean […] standard error of the mean. Statistical comparisons were made by unpaired Student's t test. If multiple comparisons were made, the Bonferroni correction was applied. The severity of renal histologic injury in the glycerol AKI model was graded on a […] (least to most severe tubular necrosis and cast formation observed). The histologic results were compared by Wlcoxon rank sum test. Statistical significance was taken as a P value of <0.05.

[10] = test system: IL-10; experiment: Liver IL-10 mRNA and protein after N-Mgb, SnPP or both; type: in vivo, mice; conditions: 18 h after Rx treatment
Method: as §1

[11] = test system: HO-1; experiment: Renal cortical HO-1 protein (ELISA) after IV myoglobin, SnPP or both; type: in vivo, mice; conditions: Cortex, 4 hr IV, 1 mg Myoglobin, 1 μmole SnPP
Excerpt: The Glycerol Model of AKI. This is a widely used model of rhabdomyolysis-induced AKI that has been employed worldwide for 50 years. The model was used to test whether prophylactic interventions confer protection against AKI. Basically, the protocol is as follows: Male CD-1 mice (35-45 grams), obtained from Charles River Laboratories, Wilmington, Mass. were studied. Mice were maintained under standard vivarium conditions and generally housed for 1-3 weeks prior to study. The mice were placed in a cylindrical restraining cage, and then were given a tail vein injection of the test substances (see below) or test substance vehicle. The mice were then returned to their cages. Eighteen hours (hrs) later, the mice were briefly anesthetized by isoflurane inhalation, and given an intramuscular injection of hypertonic (50%) glycerol in a dose of 9 ml/Kg body weight. The dose is divided in two, with half injected into the muscle of each of the hind limbs. The mice were then returned to their cages. Eighteen hrs later, the mice were deeply anesthetized with pentobarbital (50-100 mg/Kg), the abdominal cavity was opened through a midline abdominal incision, a blood sample was obtained from the abdominal vena cava and the kidneys were resected. A kidney cross section was obtained and fixed in formalin for subsequent histologic analysis. The terminal blood samples were analyzed for BUN and creatinine, using commercially available assay kits. The remaining kidney tissue was subjected to cortical dissection, and the cortical tissues were then extracted for protein and RNA. The protein samples were saved for analysis of HO-1 levels, and the RNA samples were subjected to RT-PCR to quantify HO-1 mRNA as well as levels of other stress gene mRNAs (e.g. NGAL, haptoglobin, hemopexin, hepicidin).
Myoglobin+SnPP: To 5 mg of dry myoglobin was added 0.9 ml of PBS+0.1 ml of a stock SnPP solution (50 umole/ml). The resulting final concentrations were 5 mg/ml myoglobin+5 umoles/ml of SnPP. The tail vein was injected with 200 ul of this solution, which equals 1 mg myoglobin+1 umole SnPP. […]
Four hr post myoglobin vs myoglobin+SnPP vs SnPP alone experiments. To confirm that the myoglobin+SnPP has a synergistic effect in inducing HO-1 mRNA and HO-1 protein levels, each of the above combinations have been administered alone via tail vein injection. […] For additional information regarding methods, see Zager et al., Am J Physiol Renal Physiol. 2014 Jul. 30. Pii.

[12] = test system: HO-1; experiment: Renal cortical HO-1 mRNA (RT-PCR) and protein (ELISA) after N-Mgb, SnPP or both; type: in vivo, mice
Method: as §1

In the case of C=Cc1c2[n-]c(c1C)/C=c1\[n-]/c(c(C)c1C=C)=C\c1[n-]c(c(CCC(=O)O)c1C)C=c1[n-]/c(c(C)c1CCC(=O)O)=C\2.[Sn+4] [SnPP, Sn-protoporphyrin, reference compound], the “effect on kidney dysfunction” value [1] is listed as “exacerbated kidney dysfunction”, the “increase in renal IL-10 mRNA” value ([2]; 4 hours after injection) is listed as “either minimal or no impact” and the “increase in renal IL-10 protein” value ([2]; 18 hours after injection) is listed as “absence of IL-10 protein increases”. The “Kidney IL-10 (protein)” value ([2]; renal cortex, 4 h after Rx treatment) was 550 ± 86, the tolerability in humans [3] was “well tolerated in humans” and the “effect of pretreatment on renal injury” value [4] was “exacerbated renal injury”. The half-life [5] was 2 to 4 h, the “Kidney Haptoglobin (protein)” value [6] was 13.1 ± 1.3 and the “reduction of Mgb toxicity by SnPP addition” value [7] was no more than 85%. For the same compound, the “Cardiac mRNA HO-1” value [8] was 0.09 ± 0.03, the “protection against glycerol-induced AKI (BUN/creatinine levels)” value [9] was “virtually no effect” and the “Liver mRNA IL-10” value [10] was 0.05 ± 0.01. The “HO-1 Protein Expression (by ELISA), Average” value ([11]; average) was 34.4 ng HO-1/mg protein, the “HO-1 Protein Expression (by ELISA), individual mice” value ([11]; single animals) was 32.2 ng HO-1/mg protein and 31.5 ng HO-1/mg protein and 20.5 ng HO-1/mg protein and 53.6 ng HO-1/mg protein and the “increase in renal HO-1 mRNA” value ([12]; 4 hours after IV injection, vs controls) was “only modest increases”. For the same compound, the “increase in renal HO-1 protein” value ([12]; 18 hours post-treatment, vs control values) was “only relatively small HO-1 protein increases”.

Source: patent publication US9844563B2, “Compositions, kits, and methods to induce acquired cytoresistance using stress protein inducers” (FRED HUTCHINSON CANCER RESEARCH CENTER, priority 2014, dated 2017)
